Consider one cell line from the supplement of paper PMC10307832.

Holding throughout (test): relative viability (nuclei count vs DMSO), 5 days (fraction); higher = more cells survive
Compound in the assay “Metformin + Linsitinib”: CN(C)C(=N)NC(=N)N [Metformin] + C[C@]1(O)C[C@@H](c2nc(-c3ccc4ccc(-c5ccccc5)nc4c3)c3c(N)nccn32)C1 [Linsitinib] (partner 1 µM)
A digest of the protocol: (§1)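 Dosing by pin tool came one day after lung cancer cell lines were seeded in 1536-well plates, using either one drug or a fixed anchor-drug dose plus five library-drug doses (not always all listed) in √10 steps. After 5 days, nuclei were counted on 4× images. Relative viability is treated-well nuclei count divided by vehicle-well nuclei count, and values are medians of duplicate plates.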

Compound in the assay “Apatinib + Dasatinib”: N#CC1(c2ccc(NC(=O)c3cccnc3NCc3ccncc3)cc2)CCCC1 [Apatinib] + Cc1nc(Nc2ncc(C(=O)Nc3c(C)cccc3Cl)s2)cc(N2CCN(CCO)CC2)n1 [Dasatinib] (partner 0.075 µM)
A digest of the protocol: as §1

Compound in the assay “Metformin + Olaparib”: CN(C)C(=N)NC(=N)N [Metformin] + O=C(c1cc(Cc2n[nH]c(=O)c3ccccc23)ccc1F)N1CCN(C(=O)C2CC2)CC1 [Olaparib] (partner 8 µM)
The gist of the method:
as §1

Compound in the assay “Metformin + Vorinostat”: CN(C)C(=N)NC(=N)N [Metformin] + O=C(CCCCCCC(=O)Nc1ccccc1)NO [Vorinostat] (partner 1 µM)
The gist of the method: as §1

With NCI-H460, the relative viability with Metformin + Linsitinib (first compound 31.62 µM) is 0.772; with Metformin + Linsitinib (first compound 100 µM), 0.774; with Metformin + Linsitinib (first compound 316.23 µM), 0.662; in the assay with Metformin + Linsitinib (first compound 1000 µM), 0.843; in the assay with Apatinib + Dasatinib (first compound 0.08 µM) it was 0.468; with Apatinib + Dasatinib (first compound 0.253 µM), 0.477. Besides, the relative viability in the assay with Apatinib + Dasatinib (first compound 0.8 µM) came to 0.426; with Apatinib + Dasatinib (first compound 2.53 µM) it was 0.487; in the assay with Apatinib + Dasatinib (first compound 8 µM) it was 0.413; in the assay with Metformin + Olaparib (first compound 31.62 µM), 0.412; with Metformin + Olaparib (first compound 100 µM) it was 0.422; with Metformin + Olaparib (first compound 316.23 µM), 0.294. Moreover, the relative viability in the assay with Metformin + Olaparib (first compound 1000 µM) is 0.262; with Metformin + Vorinostat (first compound 31.62 µM), 0.667; with Metformin + Vorinostat (first compound 100 µM) it was 0.542; in the assay with Metformin + Vorinostat (first compound 316.23 µM) it was 0.581; in the assay with Metformin + Vorinostat (first compound 1000 µM), 0.659.
